Test results published in patent US20220372014A1, “NEUROPROTECTIVE COMPOUNDS AND METHODS OF USE THEREOF” (The Johns Hopkins University, priority 2019, published 2022).

Key:
[1] = tested on: HeLa cells or neuronal cells; experiment: Cell death assay of Example 3 (MNNG, alamarBlue; protection against parthanatos, Table 4); type: cell-based; details: 1 μM test compound; for (%) inhibition of cell death: MNNG-induced cell death, alamarBlue
In short: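 HeLa or neuronal cells (1×10^4/well) were pretreated 1 h at 37° C with 1 μM compound, exposed to MNNG for 15 min, washed, then re-incubated 18 h with 1 μM compound. Viability was read by alamarBlue fluorescence (ex 560/em 590 nm). Cell death was expressed relative to control wells.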

[2] = biological target: T1, MIF (Homo sapiens, UniProt P14174); experiment: Nuclease assay of Example 3 (MIF inhibitory activity, Table 4); type: biochemical; set-up: (%) inhibition of MIF nuclease activity: concentration or dose not given beside the values; details: for (%) inhibition of MIF nuclease activity: nuclease assay of Example 3
T1 sequence (P14174 1-115): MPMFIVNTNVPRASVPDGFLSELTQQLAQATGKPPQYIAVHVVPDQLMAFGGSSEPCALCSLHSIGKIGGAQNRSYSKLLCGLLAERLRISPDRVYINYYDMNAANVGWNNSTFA
In short: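 Human genomic DNA (200 ng), pcDNA (200 ng) or PS^30-type substrates (1 μM) were incubated with MIF (0.25-8 μM final) in 10 mM Tris-HCl pH 7.0, 10 mM MgCl2, 1 mM DTT at 37 °C for 1 h (pcDNA, small substrates) or 4 h (genomic DNA). Cleavage was assessed by agarose or PAGE electrophoresis with EtBr staining and chemiluminescent detection of biotin-labelled DNA.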

Row | SMILES | (%) inhibition of cell death [1] [%] | (%) inhibition of MIF nuclease activity [2] [%] | (%) inhibition of cell death ([1]; 1 µM) [%] | protection against parthanatos (cell death) [1] | MIF nuclease activity [2]
1 | COc1ccc(CC[C@H]2OC(=O)[C@@H]3CCCCN3C(=O)C(=O)C(C)(C)COC(=O)C=CCCN(C)C(=O)[C@@H]3CCCN3C(=O)[C@H](COC(C)(C)C)N(C)C(=O)[C@H](Cc3ccccc3)N(C)C(=O)[C@H](C)NC(=O)COc3cccc2c3)cc1OC [compound 138] | 47.0 | −4.8 |  |  | 
2 | COCC[C@@H]1NC(=O)[C@H](COC(C)(C)C)N(C)C(=O)C(c2ccccc2)NC(=O)CN(C)C(=O)COc2cccc(c2)[C@@H](CCc2ccc(OC)c(OC)c2)OC(=O)[C@@H]2CCCCN2C(=O)C(=O)C(C)(C)COC(=O)C=CCCN(C)C1=O (stereo partly drawn) [compound 35] | 56.3 | 21.5 |  |  | 
3 | COc1cc(CC[C@H]2OC(=O)[C@@H]3CCCCN3C(=O)C(=O)C(C)(C)COC(=O)C=CCCN(C)C(=O)[C@@H]3CCCN3C(=O)[C@H](COC(C)(C)C)N(C)C(=O)C(c3ccccc3)NC(=O)[C@H](C)N(C)C(=O)COc3cccc2c3)cc(O)c1OC (stereo partly drawn) [compound 120] | 45.8 | 7.1 |  |  | 
4 | COc1ccc(CC[C@H]2OC(=O)[C@@H]3CCCCN3C(=O)C(=O)C(C)(C)COC(=O)C=CCCN(C)C(=O)[C@@H](Cc3ccccc3)NC(=O)[C@H](C(C)C)N(C)C(=O)[C@@H](Cc3ccccc3)NC(=O)[C@H](CC(C)C)N(C)C(=O)CCC(=O)Nc3cccc2c3)cc1OC [compound 84] | 51.0 | 10.8 |  |  | 
5 | COc1cc(CC[C@H]2OC(=O)[C@@H]3CCCCN3C(=O)C(=O)C(C)(C)COC(=O)C=CCCN(C)C(=O)[C@@H]3CCCN3C(=O)[C@H](COC(C)(C)C)N(C)C(=O)C(c3ccccc3)NC(=O)[C@H](C)N(C)C(=O)COc3cccc2c3)c(OC)c(OC)c1 (stereo partly drawn) [compound 113] | 66.1 | 26.8 |  |  | 
6 | COc1cc(F)c(CCC2OC(=O)[C@@H]3CCCCN3C(=O)C(=O)C(C)(C)COC(=O)C=CCCN(C)C(=O)[C@@H]3CCCN3C(=O)[C@H](COC(C)(C)C)N(C)C(=O)C(c3ccccc3)NC(=O)[C@H](C)N(C)C(=O)COc3cccc2c3)cc1OC (stereo partly drawn) [compound 110] | 59.3 | 20.9 |  |  | 
7 | COc1ccc(CC[C@H]2OC(=O)[C@@H]3CCCCN3C(=O)C(=O)C(C)(C)COC(=O)C=CCCN(C)C(=O)[C@H](Cc3ccc(F)cc3)NC(=O)[C@H](COC(C)(C)C)N(C)C(=O)[C@@H](CC(C)C)NC(=O)CN(C)C(=O)COc3cccc2c3)cc1OC [compound 10] | 57.2 | 56.8 |  |  | 
8 | COc1ccc(CC[C@H]2OC(=O)[C@@H]3CCCCN3C(=O)C(=O)C(C)(C)COC(=O)C=CCCN(C)C(=O)[C@H](c3ccccc3)NC(=O)[C@H](Cc3ccccc3)N(C)C(=O)[C@@H](C)NC(=O)CN(C)C(=O)COc3cccc2c3)cc1OC [compound 75] | 52.8 | 34.9 |  |  | 
9 | COc1ccc(CC[C@H]2OC(=O)[C@@H]3CCCCN3C(=O)C(=O)C(C)(C)COC(=O)C=CCCN(C)C(=O)[C@H](Cc3ccccc3)NC(=O)[C@H](C(C)C)N(C)C(=O)[C@@H](Cc3ccccc3)NC(=O)[C@H](CC(C)C)N(C)C(=O)CCC(=O)Nc3cccc2c3)cc1OC [compound 83] | 49.8 | 12.0 |  |  | 
10 | COc1ccc(CC[C@H]2OC(=O)[C@@H]3CCCCN3C(=O)C(=O)C(C)(C)COC(=O)C=CCCN(C)C(=O)[C@H](CC3CCCCC3)NC(=O)[C@H](COC(C)(C)C)N(C)C(=O)[C@@H](CC(C)C)NC(=O)CN(C)C(=O)COc3cccc2c3)cc1OC [compound 12] | 52.0 | 28.9 |  |  | 
11 | COc1ccc(CC[C@H]2OC(=O)[C@@H]3CNCCN3C(=O)C(=O)C(C)(C)COC(=O)C=CCCN(C)C(=O)[C@@H]3CCCN3C(=O)[C@H](COC(C)(C)C)N(C)C(=O)C(c3ccccc3)NC(=O)[C@H](C)N(C)C(=O)COc3cccc2c3)cc1OC (stereo partly drawn) [compound 128] | 47.4 | 11.0 |  |  | 
12 | COc1ccc(CC[C@H]2OC(=O)[C@@H]3CCCCN3C(=O)C(=O)C(C)(C)COC(=O)C=CCCN(C)C(=O)C(c3ccccc3)NC(=O)[C@H](COC(C)(C)C)N(C)C(=O)[C@H](Cc3ccc4ccccc4c3)NC(=O)[C@H](C)N(C)C(=O)COc3cccc2c3)cc1OC (stereo partly drawn) [compound 30] | 51.5 | 18.6 |  |  | 
13 | COc1ccc(CC[C@H]2OC(=O)[C@@H]3CCCCN3C(=O)C(=O)C(C)(C)COC(=O)C=CCCN(C)C(=O)[C@H](Cc3ccc4ccccc4c3)NC(=O)[C@H](COC(C)(C)C)N(C)C(=O)C(c3ccccc3)NC(=O)[C@H](C)N(C)C(=O)COc3cccc2c3)cc1OC (stereo partly drawn) [compound 58] | 56.1 | 16.5 |  |  | 
14 | COc1ccc(CC[C@H]2OC(=O)[C@@H]3CCCCN3C(=O)C(=O)C(C)(C)COC(=O)C=CCCN(C)C(=O)[C@H](Cc3ccc4ccccc4c3)NC(=O)[C@H](COC(C)(C)C)N(C)C(=O)[C@@H](CC(C)C)NC(=O)CN(C)C(=O)COc3cccc2c3)cc1OC [compound 13] | 46.7 | 21.9 |  |  | 
15 | COc1ccc(CC[C@H]2OC(=O)[C@@H]3CCCCN3C(=O)C(=O)C(C)(C)COC(=O)C=CCCN(C)C(=O)[C@@H]3CCCN3C(=O)[C@H](COC(C)(C)C)N(C)C(=O)C(c3ccccc3)NC(=O)[C@H](C)N(C)C(=O)COc3cccc2c3)cc1OC (stereo partly drawn) [compound 102] |  | 59.5 | 77.7 |  | 
16 | COc1ccc(CC[C@H]2OC(=O)[C@@H]3CCCCN3C(=O)C(=O)C(C)(C)COC(=O)C=CCCN(C)C(=O)[C@@H]3CCCN3C(=O)[C@H](COC(C)(C)C)N(C)C(=O)C(c3ccccc3)NC(=O)[C@H](C)N(C)C(=O)COc3cccc2c3F)cc1OC (stereo partly drawn) [compound 125] | 63.4 | 2.4 |  | protect against parthanatos | do not inhibit MIF nuclease activity
17 | COc1ccc(CC[C@H]2OC(=O)[C@@H]3CCCCN3C(=O)C(=O)C(C)(C)COC(=O)C=CCCN(C)C(=O)[C@@H]3CCCN3C(=O)[C@H](COC(C)(C)C)N(C)C(=O)C(c3ccccc3)NC(=O)[C@H](C)N(C)C(=O)COc3ccc(F)c2c3)cc1OC (stereo partly drawn) [compound 112] | 48.3 | 19.2 |  |  | 
18 | CCC[C@@H]1NC(=O)[C@H](COC(C)(C)C)N(C)C(=O)[C@@H](Cc2ccc3ccccc3c2)NC(=O)[C@H](C)N(C)C(=O)COc2cccc(c2)[C@@H](CCc2ccc(OC)c(OC)c2)OC(=O)[C@@H]2CCCCN2C(=O)C(=O)C(C)(C)COC(=O)C=CCCN(C)C1=O [compound 19] | 62.4 | 59.9 |  |  | 
19 | COc1ccc(CC[C@H]2OC(=O)[C@@H]3CCCCN3C(=O)C(=O)C(C)(C)COC(=O)C=CCCN(C)C(=O)[C@@H](Cc3ccccc3)NC(=O)[C@H](Cc3ccccc3)N(C)C(=O)[C@@H](C)NC(=O)CN(C)C(=O)COc3cccc2c3)cc1OC [compound 69] | 55.7 | 20.7 |  |  | 
20 | COc1ccc(CC[C@H]2OC(=O)[C@@H]3CCCCN3C(=O)C(=O)C(C)(C)COC(=O)C=CCCN(C)C(=O)[C@@H]3CCCN3C(=O)[C@H](COC(C)(C)C)N(C)C(=O)C(c3ccccc3)NC(=O)[C@H](C)N(C)C(=O)COc3cccc2c3)cc1 (stereo partly drawn) [compound 151] | 45.7 | 6.8 |  |  | 
21 | COc1ccc(CC[C@H]2OC(=O)[C@@H]3CCCCN3C(=O)C(=O)C(C)(C)COC(=O)C=CCCN(C)C(=O)[C@@H]3CCCCN3C(=O)[C@H](COC(C)(C)C)N(C)C(=O)C(c3ccccc3)NC(=O)[C@H](C)N(C)C(=O)COc3cccc2c3)cc1OC (stereo partly drawn) [compound 92] | 72.1 | 9.0 |  | protect against parthanatos | do not inhibit MIF nuclease activity
22 | COc1ccc(CC[C@H]2OC(=O)[C@@H]3CCCCN3C(=O)C(=O)C(C)(C)COC(=O)C=CCCN(C)C(=O)[C@H](Cc3ccc(F)cc3)NC(=O)[C@H](C(C)C)N(C)C(=O)[C@@H](Cc3ccccc3)NC(=O)[C@H](CC(C)C)N(C)C(=O)CCC(=O)Nc3cccc2c3)cc1OC [compound 85] | 49.4 | 10.7 |  |  | 
23 | COc1ccc(CC[C@H]2OC(=O)[C@@H]3CCCCN3C(=O)C(=O)C(C)(C)COC(=O)C=CCCN(C)C(=O)[C@@H]3CCCN3C(=O)[C@H](COC(C)(C)C)N(C)C(=O)[C@H](Cc3ccc(C#N)cc3)NC(=O)[C@H](C)NC(=O)COc3cccc2c3)cc1OC [compound 143] | 46.7 | −1.1 |  |  | 
24 | COc1ccc(CC[C@H]2OC(=O)[C@@H]3CCCCN3C(=O)C(=O)C(C)(C)COC(=O)C=CCCN(C)C(=O)[C@@H]3CCCN3C(=O)[C@H](COC(C)(C)C)N(C)C(=O)C(c3ccccc3)NC(=O)[C@H](C)N(C)C(=O)COc3cccc2c3)cc1OC (stereo partly drawn) [compound 152] |  | −2.4 | 43.0 |  | 
25 | COc1ccc(CC[C@H]2OC(=O)[C@@H]3CCCCN3C(=O)C(=O)C(C)(C)COC(=O)C=CCCN(C)C(=O)[C@@H](C)NC(=O)[C@H](COC(C)(C)C)N(C)C(=O)C(c3ccccc3)NC(=O)[C@H](C)N(C)C(=O)COc3cccc2c3)cc1OC (stereo partly drawn) [compound 48] | 49.2 | 61.5 |  |  | 
